# Patent US12371428B2 (Exelixis, Inc., priority 2019, dated 2025)
# Where a name gives a salt, the structure may show the parent alone. Read-outs that look alike come from different tables or passages of the source.
# What was measured:
# [1] = molecular target: Human KDR (residues 790-1356) (Homo sapiens (Human), UniProt P35968); experiment: Human KDR kinase assay, HTRF KinEase (Example B-2); type: biochemical
# Method in brief: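 Human KDR residues 790-1356 (0.1 ng/well) in buffer with 5 mM MgCl2, 1 mM MnCl2, 1 mM DTT, biotinylated peptide substrate, ATP at Km (4.0 μM), 3% DMSO, 10 compound concentrations; 40 min, room temperature. EDTA stop, streptavidin-XL665/Eu-TK antibody HTRF read 665/620 nm; 4-parameter IC50.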
# [2] = molecular target: Human MER (residues 528-999) (Homo sapiens (Human), UniProt Q12866); experiment: Human Mer kinase assay, HTRF KinEase (Example C-2); type: biochemical
# Chain of Human MER (residues 528-999) (Q12866 528-999): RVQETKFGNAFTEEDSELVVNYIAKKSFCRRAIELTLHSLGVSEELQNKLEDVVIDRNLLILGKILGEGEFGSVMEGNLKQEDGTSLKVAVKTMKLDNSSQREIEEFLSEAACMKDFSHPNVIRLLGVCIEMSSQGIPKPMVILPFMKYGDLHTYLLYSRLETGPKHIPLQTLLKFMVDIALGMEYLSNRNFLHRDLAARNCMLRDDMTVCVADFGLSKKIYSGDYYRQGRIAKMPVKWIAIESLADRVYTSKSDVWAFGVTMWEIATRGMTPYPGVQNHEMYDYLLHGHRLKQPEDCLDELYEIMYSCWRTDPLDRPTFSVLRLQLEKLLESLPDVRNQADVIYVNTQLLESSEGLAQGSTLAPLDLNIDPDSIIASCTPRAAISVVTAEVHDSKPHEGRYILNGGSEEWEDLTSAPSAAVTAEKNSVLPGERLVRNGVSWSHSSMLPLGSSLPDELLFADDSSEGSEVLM
# Method in brief: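 HTRF KinEase TK assay with MER 528-999 (1 ng/well) in enzymatic buffer plus 5 mM MgCl2 and 1 mM DTT, biotinylated peptide substrate and ATP at Km (40 μM), 3% DMSO final, 60 min at room temperature. Stopped with EDTA detection mix (SA-XL665, TK antibody-Eu3+), read at 665/620 nm after 60 min; IC50 from 10-point 4-parameter fit, normalized to DMSO and 1 μM reference.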
# [3] = molecular target: Human MET (residues 956-1390) (Homo sapiens (Human), UniProt P08581); experiment: Human Met kinase assay, HTRF KinEase (Example D-2); type: biochemical; conditions: read-out: c-Met IC50
# Chain of Human MET (residues 956-1390) (P08581 956-1390): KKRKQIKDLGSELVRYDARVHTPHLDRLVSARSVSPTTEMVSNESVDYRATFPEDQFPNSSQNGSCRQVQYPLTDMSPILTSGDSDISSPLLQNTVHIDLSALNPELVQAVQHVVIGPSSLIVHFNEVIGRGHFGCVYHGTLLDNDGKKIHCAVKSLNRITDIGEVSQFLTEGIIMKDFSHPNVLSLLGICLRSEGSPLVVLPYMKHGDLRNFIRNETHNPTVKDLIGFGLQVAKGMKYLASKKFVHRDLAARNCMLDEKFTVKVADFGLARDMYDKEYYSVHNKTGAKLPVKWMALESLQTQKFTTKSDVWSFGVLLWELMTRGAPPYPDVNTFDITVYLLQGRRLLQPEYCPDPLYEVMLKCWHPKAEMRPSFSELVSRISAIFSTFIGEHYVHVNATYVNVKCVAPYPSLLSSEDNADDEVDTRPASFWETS
# Method in brief: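 HTRF KinEase assay on MET residues 956-1390 (0.1 ng/well) in buffer with 5 mM MgCl2, 1 mM DTT and 1 mM MnCl2, with biotinylated peptide substrate, ATP at Km, 10 compound concentrations and 3% DMSO final, run 40 min at room temperature. The […] signal was normalized to DMSO and to 1 μM reference compound, and IC50 came from a 4-parameter logistic fit.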
# [4] = molecular target: Met (phospho-Met, HGF-stimulated PC-3 prostate cancer cells) (Homo sapiens (Human), UniProt P08581); experiment: Met autophosphorylation ELISA in PC-3 cells (Example F); type: cell-based; conditions: cellular activity; Met autophosphorylation ELISA in PC-3 cells; read-out: c-Met IC50
# Chain of Met (phospho-Met, HGF-stimulated PC-3 prostate cancer cells) (P08581 25-1390): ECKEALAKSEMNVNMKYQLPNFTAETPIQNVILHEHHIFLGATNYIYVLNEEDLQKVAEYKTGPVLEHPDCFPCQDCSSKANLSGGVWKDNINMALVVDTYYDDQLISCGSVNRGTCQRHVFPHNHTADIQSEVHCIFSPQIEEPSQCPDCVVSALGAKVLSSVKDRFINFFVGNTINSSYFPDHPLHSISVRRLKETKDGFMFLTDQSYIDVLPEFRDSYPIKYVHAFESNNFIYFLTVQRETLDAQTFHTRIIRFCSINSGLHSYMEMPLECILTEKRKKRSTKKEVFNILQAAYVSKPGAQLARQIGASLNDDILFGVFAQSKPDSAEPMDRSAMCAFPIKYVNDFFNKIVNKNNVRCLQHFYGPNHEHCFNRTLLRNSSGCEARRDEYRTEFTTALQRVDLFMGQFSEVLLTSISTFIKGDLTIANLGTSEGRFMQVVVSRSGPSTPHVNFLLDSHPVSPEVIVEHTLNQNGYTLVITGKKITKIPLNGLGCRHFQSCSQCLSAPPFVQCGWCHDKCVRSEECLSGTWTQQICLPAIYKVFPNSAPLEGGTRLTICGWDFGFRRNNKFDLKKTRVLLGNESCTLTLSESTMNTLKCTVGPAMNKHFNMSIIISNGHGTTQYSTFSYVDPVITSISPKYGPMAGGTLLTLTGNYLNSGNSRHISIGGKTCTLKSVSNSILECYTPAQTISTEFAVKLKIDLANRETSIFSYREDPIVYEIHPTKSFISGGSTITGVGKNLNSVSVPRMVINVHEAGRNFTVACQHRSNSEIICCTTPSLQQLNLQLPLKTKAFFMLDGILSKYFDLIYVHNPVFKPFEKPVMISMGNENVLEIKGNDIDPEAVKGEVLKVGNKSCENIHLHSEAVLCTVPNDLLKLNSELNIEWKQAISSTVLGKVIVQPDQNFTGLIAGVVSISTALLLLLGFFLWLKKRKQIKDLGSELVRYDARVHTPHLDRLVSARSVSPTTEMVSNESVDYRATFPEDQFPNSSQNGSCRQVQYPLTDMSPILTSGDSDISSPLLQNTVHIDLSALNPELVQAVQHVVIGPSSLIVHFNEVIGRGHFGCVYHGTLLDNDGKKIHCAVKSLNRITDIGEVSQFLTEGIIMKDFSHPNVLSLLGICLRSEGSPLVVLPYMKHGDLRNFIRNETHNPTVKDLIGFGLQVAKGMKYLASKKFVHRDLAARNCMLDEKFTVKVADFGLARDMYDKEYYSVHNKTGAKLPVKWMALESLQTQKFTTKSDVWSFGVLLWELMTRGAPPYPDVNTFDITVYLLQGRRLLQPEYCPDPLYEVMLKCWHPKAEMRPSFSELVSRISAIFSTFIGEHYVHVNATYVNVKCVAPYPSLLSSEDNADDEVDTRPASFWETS
# Method in brief: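 Serum-starved (3 h) PC-3 cells were treated 1 h with compounds (8-point curve, 0.3% DMSO), then stimulated with 100 ng/mL human HGF for 10 min. Lysate phospho-Met (panTyr) was measured by sandwich ELISA, normalised to DMSO and reference-inhibitor controls. IC50 came from 4-parameter logistic fit.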
# [5] = molecular target: KDR (phospho-KDR, VEGF165-stimulated HUVEC cells) (Homo sapiens (Human), UniProt P35968); experiment: KDR autophosphorylation ELISA in HUVEC cells (Example G); type: cell-based; conditions: cellular activity; KDR autophosphorylation ELISA in HUVEC cells
# Chain of KDR (phospho-KDR, VEGF165-stimulated HUVEC cells) (P35968 20-1356): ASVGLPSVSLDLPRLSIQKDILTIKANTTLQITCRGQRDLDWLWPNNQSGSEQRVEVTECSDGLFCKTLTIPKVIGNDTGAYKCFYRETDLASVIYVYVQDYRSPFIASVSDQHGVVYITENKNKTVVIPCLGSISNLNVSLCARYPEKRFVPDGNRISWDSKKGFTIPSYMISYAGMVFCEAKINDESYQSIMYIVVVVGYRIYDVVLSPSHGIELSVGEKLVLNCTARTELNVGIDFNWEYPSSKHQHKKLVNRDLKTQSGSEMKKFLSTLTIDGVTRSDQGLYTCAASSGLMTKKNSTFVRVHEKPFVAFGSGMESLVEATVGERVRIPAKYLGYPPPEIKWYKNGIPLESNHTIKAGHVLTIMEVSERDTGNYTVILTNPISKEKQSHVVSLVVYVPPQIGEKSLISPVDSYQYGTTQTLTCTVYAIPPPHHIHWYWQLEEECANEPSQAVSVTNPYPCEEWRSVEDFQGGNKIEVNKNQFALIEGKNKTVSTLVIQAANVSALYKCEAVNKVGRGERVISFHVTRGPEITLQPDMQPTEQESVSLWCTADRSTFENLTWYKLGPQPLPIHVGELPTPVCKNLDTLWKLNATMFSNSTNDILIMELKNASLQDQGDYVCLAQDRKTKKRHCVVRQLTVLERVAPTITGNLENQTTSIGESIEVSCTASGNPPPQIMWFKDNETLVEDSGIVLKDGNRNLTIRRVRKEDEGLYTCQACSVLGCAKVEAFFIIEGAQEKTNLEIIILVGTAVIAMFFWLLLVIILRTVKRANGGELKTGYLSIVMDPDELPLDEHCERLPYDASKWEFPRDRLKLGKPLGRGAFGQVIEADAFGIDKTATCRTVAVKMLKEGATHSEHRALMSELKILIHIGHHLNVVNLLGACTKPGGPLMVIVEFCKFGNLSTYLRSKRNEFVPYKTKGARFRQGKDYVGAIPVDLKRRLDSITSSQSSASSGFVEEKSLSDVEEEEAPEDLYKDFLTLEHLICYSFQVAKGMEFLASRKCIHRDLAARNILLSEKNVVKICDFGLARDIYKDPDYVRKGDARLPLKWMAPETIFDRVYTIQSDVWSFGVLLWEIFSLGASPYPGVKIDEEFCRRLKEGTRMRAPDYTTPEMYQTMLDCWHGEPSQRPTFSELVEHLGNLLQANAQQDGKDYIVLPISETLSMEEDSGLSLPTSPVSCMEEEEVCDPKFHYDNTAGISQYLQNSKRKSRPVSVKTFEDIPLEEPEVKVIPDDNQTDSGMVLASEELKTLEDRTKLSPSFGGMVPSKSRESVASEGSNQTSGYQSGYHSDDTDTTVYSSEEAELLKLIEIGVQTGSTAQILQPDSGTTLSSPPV
# Method in brief: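 HUVEC cells, serum-starved 24 h, were treated 1 h with an 8-point compound dilution (0.3% DMSO) and then stimulated with 100 ng/mL VEGF165 for 5 min. Phospho-KDR in lysates was quantified by sandwich ELISA against a phospho-KDR standard. IC50 from a 4-parameter logistic fit, normalised between stimulated DMSO and unstimulated controls.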
# [6] = protocol of Example B-2 (other compounds)
# [7] = protocol of Example C-2 (other compounds)
# [8] = protocol of Example D-2 (other compounds)
# Chain of Human KDR (residues 790-1356) (P35968 790-1356): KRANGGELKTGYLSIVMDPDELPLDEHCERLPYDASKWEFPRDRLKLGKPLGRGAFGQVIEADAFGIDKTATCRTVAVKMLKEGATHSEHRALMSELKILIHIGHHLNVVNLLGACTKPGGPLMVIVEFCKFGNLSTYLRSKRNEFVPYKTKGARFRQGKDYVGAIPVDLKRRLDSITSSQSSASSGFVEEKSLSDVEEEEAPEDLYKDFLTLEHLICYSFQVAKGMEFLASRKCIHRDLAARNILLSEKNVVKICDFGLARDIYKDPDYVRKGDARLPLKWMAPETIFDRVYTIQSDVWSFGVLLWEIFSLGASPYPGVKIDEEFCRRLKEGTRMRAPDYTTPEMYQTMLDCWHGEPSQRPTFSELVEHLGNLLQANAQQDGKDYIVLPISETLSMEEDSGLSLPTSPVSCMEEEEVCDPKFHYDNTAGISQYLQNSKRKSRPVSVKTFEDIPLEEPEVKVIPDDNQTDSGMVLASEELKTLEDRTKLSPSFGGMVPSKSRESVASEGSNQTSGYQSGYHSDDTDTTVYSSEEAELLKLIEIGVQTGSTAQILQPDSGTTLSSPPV
Compound,"IC50 [1, 6]","IC50 [2, 7]","IC50 [3, 8]",IC50 [4],IC50 [5],IC50 ([1]; protocol of Example B-2),IC50 ([2]; protocol of Example C-2),IC50 ([3]; protocol of Example D-2)
"COCCOc1nc2c(Oc3ccc(NC(=O)c4cnc(C)c(-c5ccc(F)cc5C)c4O)cc3F)ccnc2cc1OC [Compound 144, N-[3-Fluoro-4-[[7-methoxy-6-(2-methoxyethoxy)-1,5-naphthyridin-4-yl]oxy]phenyl]-5-(4-fluoro-2-methylphenyl)-4-hydroxy-6-methylpyridine-3-carboxamide]",< 100 nM,< 100 nM,< 100 nM,< 100 nM,< 100 nM,–,–,–
"Cc1nc2c(Oc3ccc(NC(=O)c4cn(C(C)C)c(C)c(-c5ccc(F)cc5)c4=O)cc3F)ccnc2cc1-c1cnn(C(F)F)c1 [Compound 614, N-[4-[[7-[1-(Difluoromethyl)pyrazol-4-yl]-6-methyl-1,5-naphthyridin-4-yl]oxy]-3-fluorophenyl]-5-(4-fluorophenyl)-6-methyl-4-oxo-1-propan-2-ylpyridine-3-carboxamide hydrochloride]",–,–,–,100 to 300 nM,> 300 nM,> 300 nM,< 100 nM,< 100 nM
"COc1cnc2c(Oc3ccc(NC(=O)c4cncc(-c5ccc(F)cc5)c4O)cc3)ccnc2c1 [Compound 146, 5-(4-Fluorophenyl)-4-hydroxy-N-[4-[(7-methoxy-1,5-naphthyridin-4-yl)oxy]phenyl]pyridine-3-carboxamide]",< 100 nM,< 100 nM,< 100 nM,< 100 nM,< 100 nM,–,–,–
"CCc1nc2c(Oc3ccc(NC(=O)c4cn(C(C)C)c(C)c(-c5ccc(F)cc5)c4=O)cc3F)ccnc2cc1OC [Compound 588, N-[4-[(6-Ethyl-7-methoxy-1,5-naphthyridin-4-yl)oxy]-3-fluorophenyl]-5-(4-fluorophenyl)-6-methyl-4-oxo-1-propan-2-ylpyridine-3-carboxamide]",–,–,–,< 100 nM,> 300 nM,> 300 nM,< 100 nM,< 100 nM
"COc1cc2nccc(Oc3ccc(NC(=O)c4cn(C(C)C)c(C)c(-c5ccc(F)cc5)c4=O)cc3F)c2nc1Br [Compound 143, N-[4-[(6-Bromo-7-methoxy-1,5-naphthyridin-4-yl)oxy]-3-fluorophenyl]-5-(4-fluorophenyl)-6-methyl-4-oxo-1-propan-2-ylpyridine-3-carboxamide]",> 300 nM,< 100 nM,< 100 nM,< 100 nM,100 to 300 nM,–,–,–
"COc1cc2nccc(Oc3ccc(NC(=O)c4cn(C(C)C)c(C)c(-c5ccc(F)cc5)c4=O)cc3F)c2nc1N [Compound 579, N-[4-[(6-Amino-7-methoxy-1,5-naphthyridin-4-yl)oxy]-3-fluorophenyl]-5-(4-fluorophenyl)-6-methyl-4-oxo-1-propan-2-ylpyridine-3-carboxamide]",–,–,–,< 100 nM,> 300 nM,> 300 nM,< 100 nM,< 100 nM
"COc1cc2nccc(Oc3ccc(NC(=O)c4cnc(C)c(-c5ccc(F)cc5)c4O)cc3F)c2nc1NS(C)(=O)=O [Compound 584, N-[3-Fluoro-4-[[6-(methanesulfonamido)-7-methoxy-1,5-naphthyridin-4-yl]oxy]phenyl]-5-(4-fluorophenyl)-4-hydroxy-6-methylpyridine-3-carboxamide]",–,–,–,< 100 nM,< 100 nM,< 100 nM,< 100 nM,< 100 nM
"Cc1nc2c(Oc3ccc(NC(=O)c4cn(C(C)C)c(C)c(-c5ccc(F)cc5)c4=O)cc3F)ccnc2cc1-c1cccnc1 [Compound 620, N-[3-Fluoro-4-[(6-methyl-7-pyridin-3-yl-1,5-naphthyridin-4-yl)oxy]phenyl]-5-(4-fluorophenyl)-6-methyl-4-oxo-1-propan-2-ylpyridine-3-carboxamide]",–,–,–,100 to 300 nM,> 300 nM,> 300 nM,< 100 nM,< 100 nM
"Cc1ncc(C(=O)Nc2ccc(Oc3ccnc4cc(C(F)(F)F)cnc34)c(F)c2)c(O)c1-c1ccc(F)cc1 [Compound 151, 5-(4-Fluorophenyl)-N-[3-fluoro-4-[[7-(trifluoromethyl)-1,5-naphthyridin-4-yl]oxy]phenyl]-4-hydroxy-6-methylpyridine-3-carboxamide]",> 300 nM,< 100 nM,< 100 nM,< 100 nM,< 100 nM,–,–,–
"COc1cnc2c(Oc3ccc(NC(=O)c4cn(C)c(C#N)c(-c5ccc(F)cc5)c4=O)cc3F)ccnc2c1 [Compound 586, 6-Cyano-N-[3-fluoro-4-[(7-methoxy-1,5-naphthyridin-4-yl)oxy]phenyl]-5-(4-fluorophenyl)-1-methyl-4-oxopyridine-3-carboxamide]",–,–,–,100 to 300 nM,> 300 nM,> 300 nM,< 100 nM,< 100 nM
"COc1cc2nccc(Oc3ccc(NC(=O)c4cn(-c5cnn(C)c5)c(C)c(-c5ccc(F)cc5)c4=O)cc3F)c2nc1OC [Compound 140, N-[4-[(6,7-Dimethoxy-1,5-naphthyridin-4-yl)oxy]-3-fluorophenyl]-5-(4-fluorophenyl)-6-methyl-1-(1-methylpyrazol-4-yl)-4-oxopyridine-3-carboxamide]",> 300 nM,< 100 nM,< 100 nM,< 100 nM,> 300 nM,–,–,–
"COc1cc2nccc(Oc3ccc(NC(=O)c4cnc(C(C)(C)C)c(-c5ccc(F)cc5)c4O)cc3F)c2nc1OC [Compound 155, 6-tert-Butyl-N-[4-[(6,7-dimethoxy-1,5-naphthyridin-4-yl)oxy]-3-fluorophenyl]-5-(4-fluorophenyl)-4-hydroxypyridine-3-carboxamide]",> 300 nM,< 100 nM,< 100 nM,100 to 300 nM,> 300 nM,–,–,–

# Further lines, results first:
"IC50 [1, 6]","IC50 [2, 7]","IC50 [3, 8]",IC50 [4],IC50 [5],IC50 ([1]; protocol of Example B-2),IC50 ([2]; protocol of Example C-2),IC50 ([3]; protocol of Example D-2),Compound
> 300 nM,< 100 nM,< 100 nM,< 100 nM,> 300 nM,–,–,–,"CCn1cc(C(=O)Nc2ccc(Oc3ccnc4cc(OC)cnc34)c(F)c2)c(=O)c(-c2ccc(F)cc2)c1C [Compound 164, 1-Ethyl-N-[3-fluoro-4-[(7-methoxy-1,5-naphthyridin-4-yl)oxy]phenyl]-5-(4-fluorophenyl)-6-methyl-4-oxopyridine-3-carboxamide]"
100 to 300 nM,< 100 nM,< 100 nM,< 100 nM,< 100 nM,–,–,–,"CCn1cc(C(=O)Nc2ccc(Oc3ccnc4cc(OC)c(OC)nc34)cc2)c(=O)c(-c2ccc(F)cc2)c1 [Compound 167, N-[4-[(6,7-Dimethoxy-1,5-naphthyridin-4-yl)oxy]phenyl]-1-ethyl-5-(4-fluorophenyl)-4-oxopyridine-3-carboxamide]"
< 100 nM,< 100 nM,< 100 nM,< 100 nM,< 100 nM,–,–,–,"COc1cc2nccc(Oc3ccc(NC(=O)c4cn(OC)cc(-c5ccc(F)cc5)c4=O)cc3)c2nc1OC [Compound 127, N-[4-[(6,7-Dimethoxy-1,5-naphthyridin-4-yl)oxy]phenyl]-5-(4-fluorophenyl)-1-methoxy-4-oxopyridine-3-carboxamide]"
< 100 nM,< 100 nM,< 100 nM,< 100 nM,100 to 300 nM,–,–,–,"COc1cc2nccc(Oc3ccc(NC(=O)c4cn(C(C)C)cc(-c5ccc(F)cc5)c4=O)cc3)c2nc1OC [Compound 122, N-[4-[(6,7-Dimethoxy-1,5-naphthyridin-4-yl)oxy]phenyl]-5-(4-fluorophenyl)-4-oxo-1-propan-2-ylpyridine-3-carboxamide]"
100 to 300 nM,< 100 nM,< 100 nM,< 100 nM,100 to 300 nM,–,–,–,"CCn1cc(C(=O)Nc2ccc(Oc3ccnc4cc(OC)c(OC)nc34)cc2)c(=O)c(-c2ccc(F)cc2)c1C [Compound 168, N-[4-[(6,7-Dimethoxy-1,5-naphthyridin-4-yl)oxy]phenyl]-1-ethyl-5-(4-fluorophenyl)-6-methyl-4-oxopyridine-3-carboxamide]"
> 300 nM,< 100 nM,< 100 nM,< 100 nM,> 300 nM,–,–,–,"COc1cnc2c(Oc3ccc(NC(=O)c4cn(C(C)C)c(C)c(-c5ccc(F)cc5)c4=O)cc3)ccnc2c1 [Compound 148, 5-(4-Fluorophenyl)-N-[4-[(7-methoxy-1,5-naphthyridin-4-yl)oxy]phenyl]-6-methyl-4-oxo-1-propan-2-ylpyridine-3-carboxamide]"
